Patent US11564913B2, “Compositions and methods for treating cancer” (Children's Hospital Medical Center, priority 2019, dated 2023)

Key:
[1] = system: active Cdc42 in p190-BCR-ABL Ba/F3 cells; experiment: Active GTPase pull-down (GST-PAK-GBD); type: cell-based, murine; settings: 3 μM
Description: (§1) FIG. 13: IODVA1 decreases Rac activation and signaling. (A) Ba/F3 cells expressing p190-BCR-ABL1 were treated with IODVA1 (3 μM) as indicated and levels of active Rac (Rac-GTP) were assessed by pull-down using GST-PAK-GBD, followed by immunoblotting (upper panel) and densitometric quantification (lower panel). (B) Flow-cytometry analysis of pJNK, pS6, p4EBP, pPAK1, and pAKT of Ba/F3 cells expressing Mieg3 empty vector (light and dark blue) or p190-BCR-ABL1 (light and dark salmon) and treated with vehicle control or IODVA1 (3 μM) for 30 min. (C) Representative histogram data of the cell cycle analysis of Ba/F3 cells expressing p190-BCR-ABL and treated with vehicle control or IODVA1 (1, 3, and 10 μM) for 20 h. (D) Quantification of the average number of colonies of bone marrow wild-type (black) and Rac1^Δ/Δ+Rac2^−/− (red) p190-BCR-ABL1 leukemic cells treated with vehicle control or IODVA1 (IO1, 1 μM). ns—not significant, * p<0.05, ** p<0.01, *** p<0.001. (E) As in FIG. 13A, but cells were incubated for a fixed amount of time (1 h) at the indicated IODVA1 concentrations. (F) Ba/F3 cells expressing p190-BCR-ABL1 were treated with IODVA1 (3 μM) and lysed at the indicated times. Cell lysates were separated on SDS-PAGE and immunoblotted for pPAK(T423), pBAD(S136), and BAD. (G) Ba/F3 cells expressing p190-BCR-ABL1 were treated with IODVA1 (3 μM) and levels of active Cdc42 (Cdc42-GTP) and Rho (Rho-GTP) were assessed by pull-down at the indicated times using GST-PAK-GBD and GST-Rhotekin respectively, followed by immunoblotting (left panel) and densitometric quantification (right panel). (H) Morphology of GFP^+ leukemic colonies (left panel). […]
(§2) Having shown that IODVA1 prevents formation of F-actin suprastructures, such as lamellipodia and circular dorsal ruffles, within minutes of cell incubation (FIGS. 5A-5B and Gasilina et al., 2020) we focused on Rac. […] We thus tested if IODVA1 inhibits Rac activation and measured levels of Rac-GTP during treatment using PAK-GBD (GTPase-binding domain). […]

[2] = system: active Rac (Rac-GTP) in p190-BCR-ABL Ba/F3 cells; experiment: Active GTPase pull-down (GST-PAK-GBD); type: cell-based, murine
Description: as §1, §2

OC1(c2ccccn2)N=C(Nc2nc3ccccc3[nH]2)N=C1c1ccccn1 (stereo not drawn) [IODVA1, (Z)-2-((1H-benzo[d]imidazol-2-yl)imino)-4,5-di(pyridin-2-yl)-2,5-dihydro-1H-imidazol-5-ol]
effect on active Cdc42 [1]: less effective
decrease in the levels of active Rac ([2]; 3 μM, 10-15 minutes post incubation): 70%
IC50 ([2]; Mus musculus, BaF3, 1 h, read-out: IC50, Rac activation): 1000 nM
